Measurements reported in patent US7449114B2, “Halogenated solvent remediation” (SRP Technologies, Inc., priority 2000, dated 2008).

Key:
[1] = Surface tension of electron donor solutions, pendant drop method; type: physicochemical; conditions: for change in surface tension: 0% ethyl lactate
Protocol: (§1) Based on the field results presented in Example 1, laboratory studies were performed to confirm that the enhanced bioavailability of TCE observed in the field was due to co-solvent or surfactant behavior resulting from the use of high concentrations of sodium lactate. Two fundamental properties used to screen the co-solvent or surfactant properties of a solution are surface tension and interfacial tension. Surface tension measures the force per unit length along the interface between a liquid and air due to its tension. When a co-solvent or surfactant is present in an aqueous liquid at increasing concentrations, the surface tension of that liquid decreases. Interfacial tension is similar to surface tension except that it measures the force per unit length along the interface between two liquid phases arising from the surface free energy. The higher the interfacial tension between two liquids, the less likely one is to dissolve into the other, and the more difficult it is for one to be transported within the other. […]
The laboratory study performed to confirm the co-solvent properties of the high concentration electron donor solution measured the surface tension of electron donor solutions at various concentrations. Next, interfacial tensions between the same electron donor solutions and nonaqueous phase TCE were measured. […] Surface and interfacial tension measurements were made using the pendant drop method (M. J. Rosen, ed., Structure/Performance Relationships in Surfactants, American Chemical Society, Washington D.C. 329 (1984); R. D. Bagnall & P. A. Arundel, The Profile Area of Pendant Drops, 82 J. Phys. Chem. 898 (1978)) coupled with real-time video imaging (M. D. Herd et al., Interfacial Tensions of Microbial Surfactants Determined by Real-Time Video Imaging of Pendant Drops, Proceedings paper number SPE/DOE 24206 513-519, SPE/DOE Eighth Symposium on Enhanced Oil Recovery, Tulsa, Okla. (1992)). […]

[2] = Interfacial tension between electron donor solutions and nonaqueous phase TCE, pendant drop method; type: physicochemical; conditions: 0% ethyl lactate
Protocol: as §1
The laboratory study performed to confirm the co-solvent properties of the high concentration electron donor solution measured the surface tension of electron donor solutions at various concentrations. Next, interfacial tensions between the same electron donor solutions and nonaqueous phase TCE were measured. […]

[3] = tested on: chloroethenes (primarily TCE) in ground water; assay: Field evaluation of enhanced in situ bioremediation, Test Area North (Example 1); conditions: all wells receiving significant lactate concentrations
Protocol: A 1-year field evaluation of enhanced in situ bioremediation was performed at Test Area North (“TAN”) of the Idaho National Engineering and Environmental Laboratory. […] The locations of a 5,000 μg/L TCE isopleth (14); 1,000 μg/L TCE isopleth (16); 100 μg/L TCE isopleth (18); and 5 μg/L TCE isopleth (20) are shown by solid lines. FIG. 2 illustrates a cross section of this site, showing the surface of the ground (22), an approximately 63-m (210-feet) fractured basalt unsaturation zone (24) (not drawn to scale), an approximately 60-m (200-feet) fractured basalt aquifer (26), and an impermeable clay interbed (28). […]
The initial electron donor addition strategy involved continuous injection of potable water at 37.85 liters/minute (10 gpm) into Well TSF-05. […] It was determined that the continuous injection of clean water at 37.85 liters/minute (10 gpm) overwhelmed the flux of contaminants from the secondary source. […] This was intended to prevent significant quantities of electron donor from collecting in the injection well and to help prevent biofouling. […]
Eleven monitoring wells (i.e., TAN-D2, TAN-9, TAN-10A, TAN-25, TAN-26, TAN-27, TAN-28, TAN-29, TAN-30A, TAN-31, and TAN-37) were sampled biweekly and analyzed for electron donors, biological activity indicators, competing inorganic electron acceptors and their reduced products, chloroethenes, ethene, pH, temperature, and specific conductivity.

[4] = tested on: PCE/TCE plume in ground water; assay: Sodium lactate injection pilot test, Tennessee Air National Guard Site, Memphis (Example 3); conditions: after 8 months and 4 lactate injections
Source text: Site Background. A site-wide Remedial Investigation (RI) identified a chlorinated solvent plume in a sandy aquifer approximately 35 to 60 feet (10.7 to 18.3 m) below ground surface at the 164th Airlift Wing at the Tennessee Air National Guard Site, Memphis, Tenn. The plume area targeted for treatment was over 2 acres (0.81 hectares). This unconfined saturated interval is overlain by an inorganic loess vadose zone and is separated from the deeper regional aquifer by a clay unit. PCE concentrations ranged from 5 to 1,000 μg/L in the target area, while TCE ranged from 100 to greater than 15,000 μg/L in the injection/monitoring wells. […] A pilot test of a sodium lactate injection system to enhance natural reductive dechlorination in the groundwater was approved by the Tennessee Department of Environment and Conservation, the Memphis and Shelby County Health Department, and the Shelby County Ground Water Control Board.
System Design. A three-dimensional model to simulate groundwater flow was developed using the MODFLOW simulator (U.S. Geological Survey). Once calibrated, model simulations were used to determine the optimal injection well locations, as well as the rate and duration of injection. Based on the results of other sodium lactate injection sites, a period of 60 days between injections was assumed. The optimal configuration was determined to be a 9-well injection system at an injection rate of 10 gallons per minute (gpm; 37.8 liters/minute) for 5 days.
Potable water was mixed with 60% sodium lactate to create a 1% solution. An existing 8-inch (20.3-cm) water line was tapped and connected to the distribution control header via a 4-inch (10.2-cm) line, which was housed in a portable 12-ft×14-ft (3.6-m×4.3-m) building. A double-check valve assembly was installed on the 4-inch (10.2-cm)water line to prevent back-siphoning of the injection solution into the 8-inch (20.3-cm) potable water line. Following a mixing zone with the potable water, the resulting 1% solution was delivered to the nine injection wells. […]

[5] = tested on: chlorinated ethenes (PCE, TCE) in groundwater; assay: Biostimulation pilot test, IR Site 40, Seal Beach (Example 4)
Protocol: A biostimulation pilot-test program for in situ anaerobic bioremediation of chlorinated ethenes in groundwater was conducted at Installation Restoration (IR) Program Site 40, Naval Weapons Station Seal Beach, Calif. IR Site 40 includes a concrete pit in a locomotive shop building and a gravel area north of and adjacent to the building. Oil and solvents spilled during locomotive maintenance collected in the pit and discharged to the gravel area via a drainpipe (FIG. 11). Groundwater was contaminated with chlorinated solvents, primarily PCE and trichloroethene (TCE). The plume extends over 100 meters (m) downgradient of the source area and is generally limited in extent to approximately 20 m below ground surface. The groundwater gradient is relatively flat and is influenced by tidal fluctuations. The net gradient direction is southeasterly. The Seal Beach National Wildlife Refuge lies downgradient of the site.
The tests were conducted in the area interpreted to have the highest PCE concentrations in groundwater. The tests were conducted over an 8-month period from August 2001 through mid-March 2002. Approximately 210,000 liters (55,500 gallons) of 3 percent sodium lactate solution was injected. A direct injection system was selected over recirculation to avoid reinjection of untreated water into the test cell. A 60 percent sodium lactate solution (JRW Technologies, Lenexa, Kans.) was diluted to 3 percent with potable water using a proportional injector (Dosatron International, Bordeaux, France). Lactate was injected at an average rate of approximately 3,550 gallons per week for the first 2 months. The average injection rate was then adjusted to approximately 750 gallons per week to maintain optimum electron-donor concentrations. No clogging or fouling effects were observed over the course of the pilot test. Water level measurements were performed during injection to assess the induced gradient.
Effects were monitored in seven wells in the pilot-test area. Two wells are located crossgradient and five downgradient of the injection well at distances ranging from approximately 2 to 30 m. Pretest groundwater samples were collected to establish baseline conditions. Weekly groundwater samples were collected during and analyzed on-site using field test kits for sulfate, ferrous iron, alkalinity, chemical oxygen demand (COD) (Hach, Loveland, Colo.), nitrate, and carbon dioxide (CHEMetrics, Calverton, Va.) and direct reading instrumentation for pH, temperature, conductivity, oxidation-reduction potential, and dissolved oxygen (YSI, Yellow Springs, Ohio). Monthly groundwater samples were analyzed off-site for volatile organic compounds, alkalinity, COD, anions, cations, total dissolved solids (Columbia Analytical Services, Kelso, Wash.), and dissolved gases (Performance Analytical, Simi Valley, Calif.). Samples were periodically analyzed for organic acids (Idaho National Engineering and Environmental Laboratory [INEEL], Idaho Falls, Id.), phospholipid fatty acids (Microbial Insights, Rockford, Tenn.), and DNA typing using quantitative polymerase chain reaction (PCR) and terminal restriction fragment length polymorphisms (T-RFLP) analyses (University of California, Berkeley, Calif.), according to methods well known in the art.

Row | Structure (SMILES) | effect on the solution's surface tension ([1]; 1% and 10% ethyl lactate added to sodium lactate solutions) | change in surface tension ([1]; sodium lactate 0.01 to 7%) | change in surface tension ([1]; sodium lactate increased to 30 and 60%) | interfacial tension as % of the value at 0.1% sodium lactate ([2]; sodium lactate 30%) | decrease of interfacial tension ([2]; sodium lactate increased from 0.1 to 3%) | reductive dechlorination of TCE to ethene [3] | TCE concentrations ([4]; 10 of 15 wells) | TCE concentration ([4]; well 03-010MW, pre-lactate around 5,690) | TCE concentration ([4]; well 03-020MW, pre-lactate around 4,600) | increase of PCE concentrations ([5]; at least one well, following injection) | reductive dechlorination of PCE and TCE ([5]; by the third month) | biomass (phospholipid fatty acid analysis) ([5]; close to the injection well) | radius of influence within which PCE was converted to DCE ([5]; crossgradient) | radius of influence within which PCE was converted to DCE ([5]; downgradient)
1 | CCOC(=O)C(C)O (centres unmarked) [ethyl lactate] | pronounced effect | – | – | – | – | – | – | – | – | – | – | – | – | –
2 | CC(O)C(=O)[O-].[Na+] (centres unmarked) [sodium lactate] | – | almost no change | dramatic decrease | 47% | about 26% | Enhanced reductive dechlorination of TCE to ethene was observed | below detectable levels and/or the maximum contaminant level (MCL) | approximately 50 μg/L | ~130 µg/L | greater than fifteen-fold | dramatically transformed to cis-1,2-DCE | increased up to an order of magnitude | approximately 6 m | ~8 m
